Molecules are shown by their SMILES.

The target of the assay is PARP-1 (poly[ADP-ribose] polymerase 1) enzyme (Homo sapiens (Human), UniProt P09874). Nature of the assay: PARP-1 (poly[ADP-ribose] polymerase 1) enzyme inhibitory ability, Trevigen assay kit. Format: biochemical. Conditions: for inhibition at 0.001 µM: 1 nM compound, read-out: PAR P-1 Inhibitory ability at 1 nM; for IC50: PARP-1 enzyme activity. The procedure, abridged: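 Human PARP-1 activity was measured with a Trevigen assay kit in histone-coated 96-well plates rehydrated with 50 μL of 1×PARP buffer for 30 minutes. Enzyme (0.5 unit/well) and compound were preincubated 10 minutes at room temperature, then 25 μL of 1×PARP cocktail with biotinylated NAD and activated DNA was added for 1 hour.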
Chain of PARP-1 (poly[ADP-ribose] polymerase 1) enzyme (P09874 whole entry): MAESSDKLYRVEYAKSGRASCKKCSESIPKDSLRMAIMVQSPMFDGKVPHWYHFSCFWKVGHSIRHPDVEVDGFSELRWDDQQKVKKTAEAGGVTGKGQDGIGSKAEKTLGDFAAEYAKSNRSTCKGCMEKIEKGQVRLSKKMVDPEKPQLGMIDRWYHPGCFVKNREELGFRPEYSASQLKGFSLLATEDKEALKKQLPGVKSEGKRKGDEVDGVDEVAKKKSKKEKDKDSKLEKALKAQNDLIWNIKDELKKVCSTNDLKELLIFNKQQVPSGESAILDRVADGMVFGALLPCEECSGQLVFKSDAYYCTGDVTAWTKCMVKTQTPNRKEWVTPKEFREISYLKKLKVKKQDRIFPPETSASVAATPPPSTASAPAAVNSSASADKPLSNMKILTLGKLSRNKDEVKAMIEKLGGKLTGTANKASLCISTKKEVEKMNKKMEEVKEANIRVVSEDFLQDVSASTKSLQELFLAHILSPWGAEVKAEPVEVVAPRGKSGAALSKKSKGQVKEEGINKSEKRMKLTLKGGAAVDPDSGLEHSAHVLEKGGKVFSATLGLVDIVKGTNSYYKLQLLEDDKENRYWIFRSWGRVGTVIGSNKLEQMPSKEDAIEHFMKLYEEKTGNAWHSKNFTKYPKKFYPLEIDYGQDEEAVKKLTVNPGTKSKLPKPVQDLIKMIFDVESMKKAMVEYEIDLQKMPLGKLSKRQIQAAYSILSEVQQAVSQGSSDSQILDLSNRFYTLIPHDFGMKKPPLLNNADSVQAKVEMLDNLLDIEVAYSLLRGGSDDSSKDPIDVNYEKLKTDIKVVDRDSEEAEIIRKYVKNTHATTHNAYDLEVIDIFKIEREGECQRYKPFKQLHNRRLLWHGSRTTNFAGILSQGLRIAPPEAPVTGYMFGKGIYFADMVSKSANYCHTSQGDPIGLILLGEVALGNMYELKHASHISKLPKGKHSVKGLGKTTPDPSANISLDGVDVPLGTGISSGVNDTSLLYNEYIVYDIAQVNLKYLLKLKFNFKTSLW

For the compound `N#Cc1ccc(NC2CCN(CCCc3cc4cccc(F)c4c(=O)[nH]3)CC2)cn1` [Example 248, 5-((1-(3-(8-fluoro-1-oxo-1,2-dihydroisoquinolin-3-yl)propyl)piperidin-4-yl)amino)picolinonitrile], the inhibition at 0.001 µM was below 50%.
Consider `N#Cc1ccc(NC2CCN(CCCc3cc4ccc(F)cc4c(=O)[nH]3)CC2)cc1` [Example 249, 4-((1-(3-(7-fluoro-1-oxo-1,2-dihydroisoquinolin-3-yl)propyl)piperidin-4-yl)amino)benzonitrile], for which the inhibition at 0.001 µM was below 50%.
Take `N#Cc1ccc(NC2CCN(CCCc3cc4ncccc4c(=O)[nH]3)CC2)cc1` [Example 250, 4-((1-(3-(5-oxo-5,6-dihydro-1,6-naphthyridin-7-yl)propyl)piperidin-4-yl)amino)benzonitrile]: the inhibition at 0.001 µM is below 50%.
Regarding `N#Cc1ccc(NC2CCN(CCCc3cc4ncccc4c(=O)[nH]3)CC2)cn1` [Example 251, 5-((1-(3-(5-oxo-5,6-dihydro-1,6-naphthyridin-7-yl)propyl)piperidin-4-yl)amino)picolinonitrile], the inhibition at 0.001 µM was below 50%.
The same measure, in the same setting: for `COC(=O)c1ccc(NC2CCN(CCCc3cc4ncccc4c(=O)[nH]3)CC2)cc1` [Example 252, methyl 4-((1-(3-(5-oxo-5,6-dihydro-1,6-naphthyridin-7-yl)propyl)piperidin-4-yl)amino)benzoate] the value was below 50%; for `O=c1[nH]c(CCCN2CCC(Nc3ccc(C(F)(F)F)cc3)CC2)cc2ncccc12` [Example 253, 7-(3-(4-((4-(trifluoromethyl)phenyl)amino)piperidin-1-yl)propyl)-1,6-naphthyridin-5(6H)-one], below 50%; for `N#Cc1ccc(OC2CCN(CCCc3cc4cccc(F)c4c(=O)[nH]3)CC2)cc1` [Example 254, 4-((1-(3-(8-fluoro-1-oxo-1,2-dihydroisoquinolin-3-yl)propyl)piperidin-4-yl)oxy)benzonitrile], below 50%.
Still for that read-out and setting: for `N#Cc1ccc(OC2CCN(C(=O)CCc3cc4cccc(F)c4c(=O)[nH]3)CC2)cc1` [Example 255, 4-((1-(3-(8-fluoro-1-oxo-1,2-dihydroisoquinolin-3-yl)propanoyl)piperidin-4-yl)oxy)benzonitrile] the value was below 50%.
For `N#Cc1ccc(NC2CCN(C(=O)CCc3cc4cccc(F)c4c(=O)[nH]3)CC2)cc1` [Example 256, 4-((1-(3-(8-fluoro-1-oxo-1,2-dihydroisoquinolin-3-yl)propanoyl)piperidin-4-yl)amino)benzonitrile], the inhibition at 0.001 µM is below 50%.
Same read-out and setting: for `CN(c1ccc(C#N)cc1)C1CCN(C(=O)CCc2cc3cccc(F)c3c(=O)[nH]2)CC1` [Example 257, 4-((1-(3-(8-fluoro-1-oxo-1,2-dihydroisoquinolin-3-yl)propanoyl)piperidin-4-yl)(methyl)amino)benzonitrile] the value was below 50%; for `N#Cc1ccc(NC2CCN(C(=O)CCc3cc4cccc(F)c4c(=O)[nH]3)CC2)cn1` [Example 258, 5-((1-(3-(8-fluoro-1-oxo-1,2-dihydroisoquinolin-3-yl)propanoyl)piperidin-4-yl)amino)picolinonitrile], below 50%; for `Cc1ccc(F)c2c(=O)[nH]c(CCC(=O)N3CCC(Nc4ccc(C#N)cc4)CC3)cc12` [Example 259, 4-((1-(3-(8-fluoro-5-methyl-1-oxo-1,2-dihydroisoquinolin-3-yl)propanoyl)piperidin-4-yl)amino)benzonitrile], below 50%.
On the same count and under the same terms, for `Cc1cc(F)cc2c(=O)[nH]c(CCC(=O)N3CCC(Nc4ccc(C#N)cc4)CC3)cc12` [Example 260, 4-((1-(3-(7-fluoro-5-methyl-1-oxo-1,2-dihydroisoquinolin-3-yl)propanoyl)piperidin-4-yl)amino)benzonitrile] the value was below 50%.
Still for that read-out and setting: for `Cc1ccc(F)c2c(=O)[nH]c(CCC(=O)N3CCC(Oc4ccc(C#N)cc4)CC3)cc12` [Example 261, 4-((1-(3-(8-fluoro-5-methyl-1-oxo-1,2-dihydroisoquinolin-3-yl)propanoyl)piperidin-4-yl)oxy)benzonitrile] the value was below 50%; for `Cc1cc(F)cc2c(=O)[nH]c(CCC(=O)N3CCC(Oc4ccc(C#N)cc4)CC3)cc12` [Example 262, 4-((1-(3-(7-fluoro-5-methyl-1-oxo-1,2-dihydroisoquinolin-3-yl)propanoyl)piperidin-4-yl)oxy)benzonitrile], below 50%.
Take `Cc1cc(F)cc2c(=O)[nH]c(CCC(=O)N3CCC(Nc4ccc(Cl)cc4)CC3)cc12` [Example 263, 3-(3-(4-((4-chlorophenyl)amino)piperidin-1-yl)-3-oxopropyl)-7-fluoro-5-methylisoquinolin-1(2H)-one]: the inhibition at 0.001 µM was below 50%.
With `Cc1ccc(F)c2c(=O)[nH]c(CCC(=O)N3CCC(Nc4ccc(Cl)cc4)CC3)cc12` [Example 264, 3-(3-(4-((4-chlorophenyl)amino)piperidin-1-yl)-3-oxopropyl)-8-fluoro-5-methylisoquinolin-1(2H)-one], the inhibition at 0.001 µM was below 50%.
In the case of `Cc1cc(F)cc2c(=O)[nH]c(CCC(=O)N3CCC(Nc4ccc(C(F)(F)F)cc4)CC3)cc12` [Example 265, 7-fluoro-5-methyl-3-(3-oxo-3-(4-((4-(trifluoromethyl)phenyl)amino)piperidin-1-yl)propyl)isoquinolin-1(2H)-one], the inhibition at 0.001 µM was below 50%.
As to `Cc1ccc(F)c2c(=O)[nH]c(CCC(=O)N3CCC(Nc4ccc(C(F)(F)F)cc4)CC3)cc12` [Example 266, 8-fluoro-5-methyl-3-(3-oxo-3-(4-((4-(trifluoromethyl)phenyl)amino)piperidin-1-yl)propyl)isoquinolin-1(2H)-one], the inhibition at 0.001 µM was below 50%.
On the same count and under the same terms, for `COC(=O)c1ccc(NC2CCN(C(=O)CCc3cc4c(C)cc(F)cc4c(=O)[nH]3)CC2)cc1` [Example 267, methyl 4-((1-(3-(7-fluoro-5-methyl-1-oxo-1,2-dihydroisoquinolin-3-yl)propanoyl)piperidin-4-yl)amino)benzoate] the value was below 50%.
The IC50 is the midpoint of a concentration-inhibition curve. The low end stands for greater potency, the high end for weaker potency. With `COC(=O)c1ccc(NC2CCN(C(=O)CCc3cc4c(C)ccc(F)c4c(=O)[nH]3)CC2)cc1` [Example 268, methyl 4-((1-(3-(8-fluoro-5-methyl-1-oxo-1,2-dihydroisoquinolin-3-yl)propanoyl)piperidin-4-yl)amino)benzoate], the inhibition at 0.001 µM is below 50% and half-maximal inhibition (IC50) was put at 8.59 nM.
Consider `Cc1ccc(F)c2c(=O)[nH]c(CCC(=O)N3C4CCC3CC(O)C4)cc12` (stereo not shown) [Example 269, 8-fluoro-3-(3-(3-hydroxy-8-azabicyclo[3.2.1]octan-8-yl)-3-oxopropyl)-5-methylisoquinolin-1(2H)-one], for which the inhibition at 0.001 µM is below 50%.
Consider `Cc1ccc(F)c2c(=O)[nH]c(CCC(=O)N3CCC(O)CC3)cc12` [Example 270, 8-fluoro-3-(3-(4-hydroxypiperidin-1-yl)-3-oxopropyl)-5-methylisoquinolin-1(2H)-one], for which the inhibition at 0.001 µM is below 50%.
For the compound `O=c1[nH]c(CCCN2C3CCC2CC(O)C3)cc2ncccc12` (stereo not shown) [Example 271, 7-(3-(3-hydroxy-8-azabicyclo[3.2.1]octan-8-yl)propyl)-1,6-naphthyridin-5(6H)-one], the inhibition at 0.001 µM is below 50%.
Consider `O=c1[nH]c(CCCN2C3CCC2CC(O)C3)cc2cccc(F)c12` (stereo not shown) [Example 272, 8-fluoro-3-(3-(3-hydroxy-8-azabicyclo[3.2.1]octan-8-yl)propyl)isoquinolin-1(2H)-one], for which the inhibition at 0.001 µM is 50 to 80% and half-maximal inhibition (IC50) was put at 3.27 nM.
Take `N#Cc1ccc(OC2CC3CCC(C2)N3CCCc2cc3cccc(F)c3c(=O)[nH]2)cc1` (stereo not shown) [Example 273, 4-((8-(3-(8-fluoro-1-oxo-1,2-dihydroisoquinolin-3-yl)propyl)-8-azabicyclo[3.2.1]octan-3-yl)oxy)benzonitrile]: the inhibition at 0.001 µM is below 50%.
`N#Cc1ccc(OC2CC3CCC(C2)N3C(=O)CCc2cc3cccc(F)c3c(=O)[nH]2)cc1` (stereo not shown) [Example 274, 4-((8-(3-(8-fluoro-1-oxo-1,2-dihydroisoquinolin-3-yl)propanoyl)-8-azabicyclo[3.2.1]octan-3-yl)oxy)benzonitrile]: the inhibition at 0.001 µM was below 50%.
The same measure, in the same setting: for `Cc1ccc(F)c2c(=O)[nH]c(CCC(=O)N3CC(NC(=O)C4CC4)C3)cc12` [Example 275, N-(1-(3-(8-fluoro-5-methyl-1-oxo-1,2-dihydroisoquinolin-3-yl)propanoyl)azetidin-3-yl)cyclopropanecarboxamide] the value was below 50%; for `Cc1ccc(F)c2c(=O)[nH]c(CCC(=O)N3CCC(NC(=O)C4CC4)CC3)cc12` [Example 276, N-(1-(3-(8-fluoro-5-methyl-1-oxo-1,2-dihydroisoquinolin-3-yl)propanoyl)piperidin-4-yl)cyclopropanecarboxamide], below 50%.

For the origin of these results see patent US12459899B2, “Isoquinolinone derivatives, method for preparing the same, and pharmaceutical composition for preventing or treating poly(ADP-ribose) polymerase-1-related diseases, comprising the same as active ingredient” (DIGMBIO. INC., priority 2019, dated 2025).
